Several values for one entry are separate records, joined by “and”; a condition that tells them apart may be missing. Equal values may be shown once.
Assays:
HCC-2998 = experiment: NCI single dose (10 µM) SRB screen; format: cell-based, human; settings: colon cancer, 48 h
OVCAR-4 = experiment: NCI single dose (10 µM) SRB screen; format: cell-based, human; settings: ovarian cancer, 48 h
BT-549 = experiment: NCI single dose (10 µM) SRB screen; format: cell-based, human; settings: breast cancer, 48 h
A498 = experiment: NCI single dose (10 µM) SRB screen; format: cell-based, human; settings: renal cancer, 48 h
OVCAR-3 = experiment: NCI single dose (10 µM) SRB screen; format: cell-based, human; settings: ovarian cancer, 48 h
TK-10 = experiment: NCI single dose (10 µM) SRB screen; format: cell-based, human; settings: renal cancer, 48 h
HCT-116 = experiment: NCI single dose (10 µM) SRB screen; format: cell-based, human; settings: colon cancer, 48 h
RXF 393 = experiment: NCI single dose (10 µM) SRB screen; format: cell-based, human; settings: renal cancer, 48 h
SK-OV-3 = experiment: NCI single dose (10 µM) SRB screen; format: cell-based, human; settings: ovarian cancer, 48 h
EKVX = experiment: NCI single dose (10 µM) SRB screen; format: cell-based, human; settings: non-small cell lung cancer, 48 h
MOLT-4 = experiment: NCI single dose (10 µM) SRB screen; format: cell-based, human; settings: leukaemia, 48 h
OVCAR-5 = experiment: NCI single dose (10 µM) SRB screen; format: cell-based, human; settings: ovarian cancer, 48 h
HL-60(TB) = experiment: NCI single dose (10 µM) SRB screen; format: cell-based, human; settings: leukaemia, 48 h
Staphylococcus aureus = experiment: Agar well diffusion method
UO-31 = experiment: NCI single dose (10 µM) SRB screen; format: cell-based, human; settings: renal cancer, 48 h
NCI/ADR-RES = experiment: NCI single dose (10 µM) SRB screen; format: cell-based, human; settings: ovarian cancer, 48 h
CAKI-1 = experiment: NCI single dose (10 µM) SRB screen; format: cell-based, human; settings: renal cancer, 48 h
MALME-3M = experiment: NCI single dose (10 µM) SRB screen; format: cell-based, human; settings: melanoma, 48 h
A549/ATCC = experiment: NCI single dose (10 µM) SRB screen; format: cell-based, human; settings: non-small cell lung cancer, 48 h
PC-3 = experiment: NCI single dose (10 µM) SRB screen; format: cell-based, human; settings: prostate cancer, 48 h
UACC-257 = experiment: NCI single dose (10 µM) SRB screen; format: cell-based, human; settings: melanoma, 48 h
RPMI-8226 = experiment: NCI single dose (10 µM) SRB screen; format: cell-based, human; settings: leukaemia, 48 h
786-0 = experiment: NCI single dose (10 µM) SRB screen; format: cell-based, human; settings: renal cancer, 48 h
Candida albicans = experiment: Agar well diffusion method
U251 = experiment: NCI single dose (10 µM) SRB screen; format: cell-based, human; settings: CNS cancer, 48 h
NCI-H322M = experiment: NCI single dose (10 µM) SRB screen; format: cell-based; settings: non-small cell lung cancer, 48 h
SF-539 = experiment: NCI single dose (10 µM) SRB screen; format: cell-based, human; settings: CNS cancer, 48 h
M14 = experiment: NCI single dose (10 µM) SRB screen; format: cell-based, human; settings: melanoma, 48 h
HOP-92 = experiment: NCI single dose (10 µM) SRB screen; format: cell-based, human; settings: non-small cell lung cancer, 48 h
ACHN = experiment: NCI single dose (10 µM) SRB screen; format: cell-based, human; settings: renal cancer, 48 h
K-562 = experiment: NCI single dose (10 µM) SRB screen; format: cell-based, human; settings: leukaemia, 48 h
NCI-H23 = experiment: NCI single dose (10 µM) SRB screen; format: cell-based, human; settings: non-small cell lung cancer, 48 h
MDA-MB-231 = experiment: NCI single dose (10 µM) SRB screen; format: cell-based, human; settings: breast cancer, 48 h
NCI-H460 = experiment: NCI single dose (10 µM) SRB screen; format: cell-based, human; settings: non-small cell lung cancer, 48 h
MDA-MB-468 = experiment: NCI single dose (10 µM) SRB screen; format: cell-based, human; settings: breast cancer, 48 h
CCRF-CEM = experiment: NCI single dose (10 µM) SRB screen; format: cell-based, human; settings: leukaemia, 48 h
NCI 60 cancer cell lines = experiment: NCI single dose (10 µM) SRB screen, mean over panel; format: cell-based, human; settings: mean over 60 cell lines, 48 h
HS578T = experiment: NCI single dose (10 µM) SRB screen; format: cell-based, human; settings: breast cancer, 48 h
HT29 = experiment: NCI single dose (10 µM) SRB screen; format: cell-based, human; settings: colon cancer, 48 h
MDA-MB-435 = experiment: NCI single dose (10 µM) SRB screen; format: cell-based, human; settings: melanoma, 48 h
SF-295 = experiment: NCI single dose (10 µM) SRB screen; format: cell-based, human; settings: CNS cancer, 48 h
SN12C = experiment: NCI single dose (10 µM) SRB screen; format: cell-based, human; settings: renal cancer, 48 h
SK-MEL-2 = experiment: NCI single dose (10 µM) SRB screen; format: cell-based, human; settings: melanoma, 48 h
IGROV1 = experiment: NCI single dose (10 µM) SRB screen; format: cell-based, human; settings: ovarian cancer, 48 h
HCT-15 = experiment: NCI single dose (10 µM) SRB screen; format: cell-based, human; settings: colon cancer, 48 h
OVCAR-8 = experiment: NCI single dose (10 µM) SRB screen; format: cell-based, human; settings: ovarian cancer, 48 h
COLO 205 = experiment: NCI single dose (10 µM) SRB screen; format: cell-based, human; settings: colon cancer, 48 h
T-47D = experiment: NCI single dose (10 µM) SRB screen; format: cell-based, human; settings: breast cancer, 48 h
SF-268 = experiment: NCI single dose (10 µM) SRB screen; format: cell-based, human; settings: CNS cancer, 48 h
SNB-19 = experiment: NCI single dose (10 µM) SRB screen; format: cell-based, human; settings: CNS cancer, 48 h
SNB-75 = experiment: NCI single dose (10 µM) SRB screen; format: cell-based, human; settings: CNS cancer, 48 h
Aspergillus flavus = experiment: Agar well diffusion method
LOX IMVI = experiment: NCI single dose (10 µM) SRB screen; format: cell-based, human; settings: melanoma, 48 h

Structure (SMILES): COCCOC(=O)C1=C(C)NC(C)=C(C(=O)OCCOC)C1c1cccc(C#N)c1 [Compound 1f, Di(2-methoxyethyl) 4-(3-cyanophenyl)-2,6-dimethyl-1,4-dihydropyridine-3,5-dicarboxylate]
- GI% HCC-2998 (HCC-2998): – (Only GI% ≥ 10 are shown)
- GI% OVCAR-4 (OVCAR-4): – (Only GI% ≥ 10 are shown)
- GI% BT-549 (BT-549): 12%
- GI% A498 (A498): – (Only GI% ≥ 10 are shown)
- GI% OVCAR-3 (OVCAR-3): – (Only GI% ≥ 10 are shown)
- GI% TK-10 (TK-10): – (Only GI% ≥ 10 are shown)
- GI% HCT-116 (HCT-116): – (Only GI% ≥ 10 are shown)
- GI% RXF 393 (RXF 393): – (Only GI% ≥ 10 are shown)
- GI% SK-OV-3 (SK-OV-3): – (Only GI% ≥ 10 are shown)
- GI% EKVX (EKVX): – (Only GI% ≥ 10 are shown)
- GI% MOLT-4 (MOLT-4): – (Only GI% ≥ 10 are shown)
- GI% OVCAR-5 (OVCAR-5): – (Only GI% ≥ 10 are shown)
- GI% HL-60(TB) (HL-60(TB)): 10%
- zone of inhibition at 1000 µg/mL (Staphylococcus aureus; Staphylococcus aureus, 24 h, read-out: Diameter of inhibition zone, S. aureus): 19 mm
- % activity index, S. aureus (Staphylococcus aureus; relative to ciprofloxacin): 79% and 79.2%
- GI% UO-31 (UO-31): – (Only GI% ≥ 10 are shown)
- GI% NCI/ADR-RES (NCI/ADR-RES): – (Only GI% ≥ 10 are shown)
- GI% CAKI-1 (CAKI-1): – (Only GI% ≥ 10 are shown)
- GI% MALME-3M (MALME-3M): – (Only GI% ≥ 10 are shown)
- GI% A549/ATCC (A549/ATCC): – (Only GI% ≥ 10 are shown)
- GI% PC-3 (PC-3): – (Only GI% ≥ 10 are shown)
- GI% UACC-257 (UACC-257): – (Only GI% ≥ 10 are shown)
- GI% RPMI-8226 (RPMI-8226): – (Only GI% ≥ 10 are shown)
- GI% 786-0 (786-0): – (Only GI% ≥ 10 are shown)
- zone of inhibition at 1000 µg/mL (Candida albicans; Candida albicans, 24 h, read-out: Diameter of inhibition zone, C. albicans): 18 mm
- % activity index, C. albicans (Candida albicans; relative to clotrimazole): 66.7%
- GI% U251 (U251): – (Only GI% ≥ 10 are shown)
- GI% NCI-H322M (NCI-H322M): – (Only GI% ≥ 10 are shown)
- GI% SF-539 (SF-539): – (Only GI% ≥ 10 are shown)
- GI% M14 (M14): – (Only GI% ≥ 10 are shown)
- GI% HOP-92 (HOP-92): – (Only GI% ≥ 10 are shown)
- GI% ACHN (ACHN): – (Only GI% ≥ 10 are shown)
- GI% K-562 (K-562): – (Only GI% ≥ 10 are shown)
- GI% NCI-H23 (NCI-H23): – (Only GI% ≥ 10 are shown)
- GI% MDA-MB-231 (MDA-MB-231): – (Only GI% ≥ 10 are shown)
- GI% NCI-H460 (NCI-H460): – (Only GI% ≥ 10 are shown)
- GI% MDA-MB-468 (MDA-MB-468): 13%
- GI% CCRF-CEM (CCRF-CEM): – (Only GI% ≥ 10 are shown)
- Mean GI% (NCI 60 cancer cell lines): −1%
- GI% HS578T (HS578T): – (Only GI% ≥ 10 are shown)
- GI% HT29 (HT29): – (Only GI% ≥ 10 are shown)
- GI% MDA-MB-435 (MDA-MB-435): – (Only GI% ≥ 10 are shown)
- GI% SF-295 (SF-295): – (Only GI% ≥ 10 are shown)
- GI% SN12C (SN12C): – (Only GI% ≥ 10 are shown)
- GI% SK-MEL-2 (SK-MEL-2): – (Only GI% ≥ 10 are shown)
- GI% IGROV1 (IGROV1): – (Only GI% ≥ 10 are shown)
- GI% HCT-15 (HCT-15): – (Only GI% ≥ 10 are shown)
- GI% OVCAR-8 (OVCAR-8): – (Only GI% ≥ 10 are shown)
- GI% COLO 205 (COLO 205): – (Only GI% ≥ 10 are shown)
- GI% T-47D (T-47D): – (Only GI% ≥ 10 are shown)
- GI% SF-268 (SF-268): – (Only GI% ≥ 10 are shown)
- GI% SNB-19 (SNB-19): – (Only GI% ≥ 10 are shown)
- GI% SNB-75 (SNB-75): 14%
- zone of inhibition at 1000 µg/mL (Aspergillus flavus; Aspergillus flavus, 24 h, read-out: Diameter of inhibition zone, A. flavus): 19 mm
- % activity index, A. flavus (Aspergillus flavus; relative to clotrimazole): 76%
- GI% LOX IMVI (LOX IMVI): – (Only GI% ≥ 10 are shown)

— paper PMC9481151, “Discovery of new symmetrical and asymmetrical nitrile-containing 1,4-dihydropyridine derivatives as dual kinases and P-glycoprotein inhibitors: synthesis, in vitro assays, and in silico studies” (Journal of Enzyme Inhibition and Medicinal Chemistry, 2022)
